Consider one compound from US20150376647A1, “DESIGNER PH SENSOR AS UNIVERSAL TRANSGENE CONTROLLER” (ETH ZURICH, priority 2013, published 2015).

SMILES strings stand for the structures.

The assay relates to protein kinase A (PKA). In words: PKA inhibition of pH sensor signaling in pDA62/pCK53-cotransfected HEK-293T. The assay is classed as cell-based, human. The following applies: 10 μM for 1 h, 2 h at pH 6.9, then pH 7.6, SEAP after 24 h. How it is done:
PKA inhibition: 1.5×10^5 cells were pretreated with 10 μM H-89 (Sigma, cat. no. B1472) for 1 h, incubated for 2 h in cell culture medium adjusted to pH 6.9 and maintained for 24 h in cell culture medium adjusted to pH 7.6 before SEAP levels were assessed in the cell culture supernatant
SEAP: Production of human placental secreted alkaline phosphatase was quantified in cell culture supernatants (Schlatter S. et al., Gene 282, 19-31 (2002)) and mouse serum (Weber et. al., Nat. Biotech., 22, 1440-1444 (2004)) as described before.

In the case of `O=S(=O)(NCCNC/C=C/c1ccc(Br)cc1)c1cccc2cnccc12` [H-89], the “TDAG8-to-PCRE signaling (SEAP levels)” value is recorded as “interrupted”.
